Like-named read-outs stand apart in the source and are kept apart here.
What was measured:
[1] = Human clinical plasma pharmacokinetics, single or multiple doses of 200 mg; type: in vivo, humans; conditions: for Dose normalised AUC0-inf / Dose normalised Cmax / AUC(0-inf) / Cmax / Tmax / half-life: 200 mg oral; for AUC(0-inf) / Cmax / Tmax / half-life: human, plasma, po; for half-life: read-out: T ½ (converted)
Experimental: Clinical pharmacokinetic studies were also conducted on volunteers who received a single dose or multiple doses of 200 mg (E)-2-[[3-Methoxy-4-(difluoromethoxy)phenyl-1-oxo-2-propenyl]amino] benzoic acid administered as powder-in-capsule. Blood was collected 10 minutes prior to dosing, and at 15 and 30 minutes and 1, 2, 3, 4, 6, 8, 12, 24, 36, 48, 72 and 96 hours post dose into K2EDTA tubes. Samples were spun in a refrigerated centrifuge within 1 hour of collection, at 2000 g for 10 minutes. Plasma was collected and frozen on dry ice.
(§1) The concentration of (E)-2-[[3-Methoxy-4-(difluoromethoxy)phenyl-1-oxo-2-propenyl]amino]benzoic acid in plasma was determined using a validated LC-MS/MS method. A non-compartmental analysis was performed using WinNonLin software. Nominal doses and sampling times were used. Concentration values below the lower limit of quantitation were treated as zero for pharmacokinetic analysis.

[2] = Animal pharmacokinetic data, 91 days of dosing in rats; type: in vivo
[3] = Rat plasma and retina pharmacokinetics, single oral dose 50 mg/kg; type: in vivo, Sprague Dawley rats; conditions: single oral dose 50 mg/kg
Experimental: Male Sprague Dawley rats were administered a single dose of 50 mg/kg of (E)-2-[[3-Methoxy-4-(difluoromethoxy)phenyl-1-oxo-2-propenyl]amino]benzoic acid by oral gavage. The oral formulation was prepared in 1% carboxymethyl cellulose. Samples were collected from 3 animals/timepoint at 1, 2, 4, 8 and 24 hours after dosing. Whole blood was collected from the tail vein in conscious rats into polypropylene tubes containing heparin. Blood samples were centrifuged immediately (3000 rpm, for 10 minutes) and supernatant plasma removed and snap frozen in liquid N2. After blood collection, animals were euthanised with pentobarbitone (120 mg/kg), eyes were enucleated and retina were weighed, collected and snap frozen in liquid nitrogen. Blood was centrifuged at 3000 rpm for 10 mins at 4° C. and plasma was collected and snap frozen in liquid N2. Plasma and retinal concentrations of (E)-2-[[3-Methoxy-4-(difluoromethoxy)phenyl-1-oxo-2-propenyl]amino]benzoic acid were determined using a validated LC-MS/MS method. Cmax and Tmax was estimated using GraphPad prism software.

[4] = Dog plasma pharmacokinetic study, single daily dose for 28 days, plasma on first day of dosing; type: in vivo, Beagle dogs; conditions: beagle, read-out: elimination half-life (converted)
Experimental: Beagle dogs were administered a single daily dose of (E)-2-[[3-Methoxy-4-(difluoromethoxy)phenyl-1-oxo-2-propenyl]amino]benzoic at 25, 50 or 100 mg/kg for 28 consecutive days. Plasma was collected up to 24 hours post-dose on the first day of dosing.

[5] = Rat plasma pharmacokinetic study, single daily dose for 28 days, plasma on first day of dosing; type: in vivo, Sprague-Dawley rats; conditions: Sprague-Dawley, read-out: elimination half-life (converted)
Experimental: Sprague-Dawley rats were administered a single daily dose of (E)-2-[[3-methoxy-4-(difluoromethoxy)phenyl-1-oxo-2-propenyl]amino]benzoic at 25, 50 or 100 mg/kg for 28 consecutive days. Plasma was collected up to 24 hours post-dose on the first day of dosing.

[6] = Human Phase I clinical trial plasma pharmacokinetics, single 50 mg dose; type: in vivo, humans; conditions: 50 mg single oral dose
Experimental: Six healthy male volunteers in a Phase I clinical trial received a single dose of 50 mg (E)-2-[[3-Methoxy-4-(difluoromethoxy)phenyl-1-oxo-2-propenyl]amino] benzoic acid administered as powder-in-capsule. Blood was collected 10 minutes prior to dosing, and at 15 and 30 minutes and 1, 2, 3, 4, 6, 8, 12, 24, 36, 48, 72 and 96 hours post dose into K2EDTA tubes. Samples were spun in a refrigerated centrifuge within 1 hour of collection, at 2000 g for 10 minutes. Plasma was collected and frozen on dry ice.
as §1

[7] = Animal pharmacokinetic data, 91 days of dosing in dogs; type: in vivo
[8] = Rabbit plasma and ocular tissue steady state pharmacokinetics, 8 daily oral doses; type: in vivo, Dutch Belted pigmented rabbits; conditions: for Tmax / Cmax: male, Dutch Belted
Experimental: Male Dutch Belted pigmented rabbits were administered a once daily dose of 50 or 100 mg/kg of (E)-2-[[3-Methoxy-4-(difluoromethoxy)phenyl-1-oxo-2-propenyl]amino]benzoic acid by oral gavage for 8 days. The oral formulation was prepared in 1% carboxymethyl cellulose. Blood was collected into tubes containing K2EDTA from two animals/dose/time point at 0 (predose), 1, 2, 4, 8, and 24 hours after the last dose on Study Day 8. Immediately following blood collection, animals were sacrificed via overdose of sodium pentobarbital. Blood samples were placed in a chilled cryorack until centrifuged to obtain plasma, which was stored at approximately -70° C. At the time of sacrifice for all animals, both eyes were enucleated, the aqueous humor was collected and discarded, and each eye was then flash frozen in liquid nitrogen for 15 to 20 seconds. The enucleated eye was placed on dry ice or stored at approximately -70° C. for at least two hours. Within approximately 5 days, the choroid-RPE, iris-ciliary body, retina and vitreous humor were collected from the right and left eye. The ocular tissues were rinsed with saline and blotted dry, as appropriate, weighed, and placed on dry ice. Sample analysis was performed using a qualified LC-MS/MS method to ascertain the concentration of (E)-2-[[3-Methoxy-4-(difluoromethoxy)phenyl-1-oxo-2-propenyl]amino]benzoic acid in each tissue matrix. Non-compartmental analysis (Gibaldi and Perrier, 1982) was applied to the individual and mean concentration data. Nominal doses and sampling times were used. Concentration values below the lower limit of quantitation were treated as zero for pharmacokinetic analysis. The plasma and ocular steady state non-compartmental pharmacokinetic parameters for repeated oral administration of 50 or 100 mg/kg on Day 8 are summarized in Table 2 and further below.

[9] = Human Phase I clinical study, steady state exposure at 50 mg after 14 days dosing; type: in vivo, humans; conditions: plasma, oral, Data from Phase I (after 14 days dosing)
Experimental: The corresponding data from the human Phase I clinical study is also included below, showing a much greater than predicted Cmax and AUC0-24 at 50 mg dosing.

[10] = human plasma, cited from earlier work
[11] = Tranilast plasma pharmacokinetics after 200 mg oral dosage (data from Charng et al.); type: in vivo, humans; conditions: human plasma
Experimental: Pharmacokinetic data for a comparator compound Tranilast following 200 mg oral dosage are also shown. See, e.g., Charng M, Ding P Y, Chuang M, et al. Pharmacokinetic Properties of Tranilast in Chinese People. Journal of Food and Drug Analysis, Vol. 10, No. 3, 2002, Pages 135-138. Tranilast is approved for use in an amount of 3 × 100 mg/day.

[12] = Tranilast 200 mg, Day 1, single dose

COc1cc(/C=C/C(=O)Nc2ccccc2C(=O)O)ccc1OC(F)F [(E)-2-[[3-methoxy-4-(difluoromethoxy)phenyl-1-oxo-2-propenyl]amino]benzoic acid]
Dose normalised AUC0-inf ([1]; Day 1, single dose): 1951 ng·h/mL | Dose normalised Cmax ([1]; Day 1, single dose): 164 ng/mL | Dose normalised AUC0-inf ([1]; Day 14, multiple dose): 18,874 ng·h/mL | Dose normalised Cmax ([1]; Day 14, multiple dose): 338 ng/mL | increase in Cmax after 14 days of dosing compared with a single dose ([1]; 200 mg, steady state vs single dose): two-fold increase | AUC(0-inf) ([1]; 200 mg, Day 1, single dose): 390 µg·h/mL | Cmax ([1]; 200 mg, Day 1, single dose): 32800 ng/mL | Tmax ([1]; 200 mg, Day 1, single dose): 3 h | half-life ([1]; 200 mg, Day 1, single dose): 9.6 h | AUC(0-inf) ([1]; 200 mg, Day 14, multiple dose): 3770 µg·h/mL | Cmax ([1]; 200 mg, Day 14, multiple dose): 67600 ng/mL | Tmax ([1]; 200 mg, Day 14, multiple dose): 2.5 h | half-life ([1]; 200 mg, Day 14, multiple dose): 23.2 h | accumulation with multiple dosing [2]: did not show accumulation | Cmax ([3]; male, Sprague Dawley, rat retina, read-out: estimated Cmax in retina): 792 ng/g | estimated maximum concentration in plasma ([3]; rat plasma): 35,134 ng/mL | time of estimated maximum concentration in plasma ([3]; rat plasma): 1 h | time of estimated maximal exposure in retina ([3]; rat retina): 4 h | detection in the plasma and retina at 24-hours post-dose ([3]; rat): still detected | half-life ([4]; 25 mg/kg): 4.3 h | half-life ([4]; 50 mg/kg): 4.9 h | half-life ([4]; 100 mg/kg): 4.2 h | half-life ([5]; 25 mg/kg): 12.9 h | half-life ([5]; 50 mg/kg): 13 h | half-life ([5]; 100 mg/kg): 11 h | Dose normalised AUC0-inf [6]: 2,256 ng·h/mL | Dose normalised Cmax [6]: 175 ng/mL | AUC(0-inf) ([6]; male): 113 µg·h/mL | Tmax ([6]; male): 2.5 h | Cmax ([6]; male, powder-in-capsule): 8740 ng/mL | half-life ([6]; male, read-out: T ½ (converted)): 24 h | accumulation with multiple dosing [7]: did not show accumulation | Tmax ([8]; oral, rabbit ocular tissues, 50 and 100 mg/kg, read-out: Tmax for all analyzed ocular tissues): 1 to 4 h | Cmax ([8]; rabbit Choroid-RPE, 50 mg/kg/day oral, Day 8): 3320 ng/g | Tmax ([8]; rabbit Choroid-RPE, 50 mg/kg/day oral, Day 8, read-out: Tmax): 1 h | Cmax ([8]; rabbit Choroid-RPE, 100 mg/kg/day oral, Day 8): 12300 ng/g | Tmax ([8]; rabbit Choroid-RPE, 100 mg/kg/day oral, Day 8, read-out: Tmax): 2 h | Cmax ([8]; rabbit Iris Ciliary Body, 50 mg/kg/day oral, Day 8): 2510 ng/g | Tmax ([8]; rabbit Iris Ciliary Body, 50 mg/kg/day oral, Day 8, read-out: Tmax): 1 h | Cmax ([8]; rabbit Iris Ciliary Body, 100 mg/kg/day oral, Day 8): 8620 ng/g | Tmax ([8]; rabbit Iris Ciliary Body, 100 mg/kg/day oral, Day 8, read-out: Tmax): 2 h | Cmax ([8]; rabbit Plasma, 50 mg/kg/day oral, Day 8): 15200 ng/mL | Tmax ([8]; rabbit Plasma, 50 mg/kg/day oral, Day 8, read-out: Tmax): 1 h | Cmax ([8]; rabbit Plasma, 100 mg/kg/day oral, Day 8): 42000 ng/mL | Tmax ([8]; rabbit Plasma, 100 mg/kg/day oral, Day 8, read-out: Tmax): 2 h | Cmax ([8]; rabbit Retina, 50 mg/kg/day oral, Day 8): 623 ng/g | Tmax ([8]; rabbit Retina, 50 mg/kg/day oral, Day 8, read-out: Tmax): 1 h | Cmax ([8]; rabbit Retina, 100 mg/kg/day oral, Day 8): 2370 ng/g | Tmax ([8]; rabbit Retina, 100 mg/kg/day oral, Day 8, read-out: Tmax): 4 h | Cmax ([8]; rabbit Vitreous Humour, 50 mg/kg/day oral, Day 8): 3.3 ng/mL | Tmax ([8]; rabbit Vitreous Humour, 50 mg/kg/day oral, Day 8, read-out: Tmax): 1 h | Cmax ([8]; rabbit Vitreous Humour, 100 mg/kg/day oral, Day 8): 11.5 ng/mL | Tmax ([8]; rabbit Vitreous Humour, 100 mg/kg/day oral, Day 8, read-out: Tmax): 4 h | detection in plasma or ocular tissue by 24 hours-post dose ([8]; rabbits, either dose (50 or 100 mg/kg)): could not be detected | Cmax [9]: 6560 ng/mL | AUC(0-t) ([9]; read-out: AUC0-24 hrs, ss): 74 µg·h/mL

COc1ccc(/C=C/C(=O)Nc2ccccc2C(=O)O)cc1OC [Tranilast]
AUC(0-inf) ([10]; Tranilast 200 mg oral): 412,000 ng·h/mL | Cmax ([10]; Tranilast 200 mg oral): 42,000 ng/mL | T ½ ([10]; Tranilast 200 mg oral): 7.5 h | Tmax ([10]; Tranilast 200 mg oral): 2.8 h | AUC(0-inf) [10, 12]: 412,000 ng-h/mL | Cmax [10, 12]: 42,000 ng/mL | T ½ [10, 12]: 7.5 h | Tmax [10, 12]: 2.8 h | Dose normalised AUC0-inf ([11]; Tranilast 200 mg oral): 2,060 ng·h/mL | Dose normalised Cmax ([11]; Tranilast 200 mg oral): 210 ng/mL | Dose normalised AUC0-inf [11, 12]: 2,060 ng·h/mL | Dose normalised Cmax [11, 12]: 210 ng/mL
